Assay results from PMC8512147, “Multifunctional Small Molecules as Potential Anti-Alzheimer’s Disease Agents” (Molecules, 2021).
Where two headings read alike, the source gives them in different places.

What was measured:
Aβ1–42 peptide [1] = biological target: T1, Aβ1–42 peptide (Homo sapiens, UniProt P05067); assay: Inhibition of Cu^2+-induced Aβ1–42 aggregation, Thioflavin T fluorescence assay; assay type: biochemical; design: Amyloid-β peptide (1–42) was purchased from GeneCust; purchased GeneCust; conditions: compounds 80 μM, with copper 40 μM; ThT fluorescence; mean of two independent measurements in duplicate; read-out: Inhibition of Aβ1–42 Aggregation (%) Cu-Induced Aβ Aggr.
Description: (§1) The studied compounds (1a–e) were tested in vitro to evaluate their activity as inhibitors of Aβ1-42 peptide aggregation, through the Thioflavin T (ThT) fluorescence assay. This method is based on the strong ability of the dye ThT to bind β-amyloid fibrils and oligomers through ionic and hydrophobic interactions, while its interaction with β-amyloid monomers is extremely weak. The intercalation of compounds in the β-sheet structure of amyloid protein may prevent fibrils aggregation and ThT binding, and it is evaluated by fluorimetry. The fluorescence emission measurements were performed after overnight incubation of the self-mediated or Cu^2+-induced Aβ fibril aggregates with the studied compounds.
(§2) The inhibition of β-amyloid (Aβ) aggregation was studied through the Th-T fluorescence assay, which was performed using a Varian Cary Eclipse fluorimeter at the following wavelengths: excitation (446 nm) and emission (485 nm). Amyloid-β peptide (1–42) was purchased from GeneCust as lyophilized powder stored at −20 °C.
(§3) The method used is based on thioflavin T (ThT) fluorescence emission, which depends on the interaction of this dye with Aβ fibrils. The assay is performed with the Aβ1–42 peptide sample, which was previously prepared by solubilization of its lyophilized powder in 1,1,1,3,3,3–hexafluoro-2-propanol (HFIP), an organic solvent useful to solubilize and monomerize the β-sheets protein aggregates. After 24 h, the solution was divided into Eppendorf tubes kept in ice, and then, HFIP was left to evaporate overnight (T = 25 °C). The resultant films were stored in the freezer. […] Compounds were dissolved in MeOH (1 mg/mL) and diluted with phosphate buffer to reach a ligand stock solution of 480 μM. Two different types of experiments were prepared in a final volume of 60 μL: control ligand assays (Aβ1–42 aggregation in the absence of inhibitor) and ligand assays (effect of ligand on Aβ1–42 aggregation). For each experiment, a blank sample without Aβ1–42 was used to monitor the effect of the compounds in fluorescence. To study the inhibition of aggregation in the presence of Cu^2+, which is known to promote it, an intermediate stock solution of CuCl2 in phosphate buffer (240 µM) was prepared. Then, it was aliquoted to obtain a final concentration of 40 µM in the samples. All samples were incubated in a water bath for 24 h at 37 °C. Then, 180 µL of ThT (5 µM) in glycine-NaOH buffer (50 mM, pH = 8.5) is added to each solution and 200 µL of it is placed in a 96-well plate (BD Falcon) to be read with the fluorimeter. After 5 min of incubation with ThT, fluorescence was measured at 446 nm (ʎ excitation) and 485 nm (ʎ emission).

[2] = Radical scavenging activity, DPPH method; assay type: biochemical; conditions: MeOH, 30 min, r.t., mean ± SD of 3 independent experiments
Source text: Commercial ferulic acid (FA) and all the newly synthesized compounds 1a–e were studied for their radical scavenging activity, following the protocol previously reported. The activity of each compound is expressed as EC50 and is related to its interaction with the free stable radical 2,2-diphenyl-1-picrylhydrazyl (DPPH•).
For the physicochemical and biological studies, analytical grade reagents and solvents were supplied by Sigma-Aldrich (St. Louis, MO, USA), Fluka (Buchs, Switzerland) and Acros (Geel, Belgium). They were used as received without any purification. The antioxidant activity assay was performed in a quartz cell of 1 cm path length with a Perkin-Elmer Lambda 35 UV–Vis spectrophotometer equipped with a temperature programmer PTP1+1 Peltier System (T = 25.0 ± 0.1 °C).
Compounds were evaluated for their radical scavenging activity by the Blois method using DPPH (2,2-diphenyl-1-picrylhydrazyl), a stable free-radical. It absorbs in methanol solution at 517–520 nm and it is a scavenger for other radicals converting itself in the reduced form DPPHH. The assay consists of preparing solutions of increasing concentration of each compound starting from a stock solution (2–3 × 10^−4 M), adding to them 2.5 mL DPPH (0.002% in MeOH, 50–100 µM) and the necessary volume of MeOH to reach the final volume 3.5 mL for each sample. The control sample was made up of DPPH and MeOH. Solutions were protected from light at r.t. for 30 min and then absorbance was measured at 517 nm with a Perkin Elmer Lambda 35 UV–Vis spectrophotometer, using methanolic solution as the blank in the other cell. All the studied compounds have good solubility in MeOH, so their solutions could be prepared. The assay was repeated three times for all compounds and the antioxidant activity, expressed as EC50, was calculated by Equation (1). %AA = ((ADPPH − Asample)/ADPPH) × 100,(1)

Aβ1–42 peptide [3] = biological target: T1, Aβ1–42 peptide; assay: Inhibition of self-mediated Aβ1–42 aggregation, Thioflavin T fluorescence assay; assay type: biochemical; design: Amyloid-β peptide (1–42) was purchased from GeneCust; purchased GeneCust; conditions: read-out: Inhibition of Aβ1–42 Aggregation (%) Self-Aβ Aggr.
Description: as §1, §2, §3

Aβ1–42 peptide [4] = biological target: T1, Aβ1–42 peptide; conditions: cited from earlier work
[5] = Cu^2+ complexation, potentiometric / spectrophotometric titration; assay type: physicochemical
Source text: (§4) The chelating ability of FA and of selected compounds 1a and 1d was studied by using the same experimental techniques (potentiometry, UV–Vis spectrophotometry) and experimental medium used for the titration of the ligand alone (20% w/w DMSO/water).
(§5) Alterations in the deprotonation profiles of the ligand titration curves due to the presence of the metal ions are evident in Figure 2, since the curves for the M/L systems appear well below that of FA for a > −1 (M = Fe) or a > 0 (M = Cu). This evidence supports the formation of metal complexes with the deprotonated (L^−) and mono-protonated (HL) forms of the ligand, whose stability order (Fe > Cu) follows the expected trend. Equilibrium models obtained from the fitting analysis of the potentiometric curves (M = Fe, Cu) and the UV–Vis spectral data (M = Fe, Cu) are reported in Table 2.
(§6) Both compounds 1a and 1d have similar chelating capacities towards iron and copper, which are also analogous to those of FA.
(§7) As concerns the metal chelation studies, potassium hydrogen phthalate (C8H5KO4, p.a.) was acquired from BDH, whereas dimethylsulfoxide (DMSO, dried, p.a.) and potassium chloride (KCl, p.a.) were supplied by Sigma-Aldrich. Aqueous solutions of metal ions were prepared starting from 1000 ppm standards (Titrisol, Sigma-Aldrich), to obtain solutions FeCl3 0.018 M and CuCl2 0.015 M. The metal content of solutions was evaluated by atomic absorption. Iron stock solution was prepared with an excess of acid chloride to avoid hydrolysis and its concentration in HCl was determined by the usual standard-addition method using 0.1M HCl (Titrisol). The 0.1M HCl solution, used in calibration of the glass electrode and in spectrophotometric titrations, was prepared from a Titrisol ampoule. The titrant was prepared from carbonate free commercial concentrate (Titrisol, KOH 0.1 M ampoules). The KOH solution was standardized by titration with a solution of potassium hydrogen phthalate using Gran’s method and it was rejected when the percentage of carbonate was greater than 0.5% of the total amount of base. The potentiometric studies were performed with an automated potentiometric apparatus controlled by PASAT program and containing a Crison micropH 2002 millivoltmeter, a Crison microBu 2031 burette and a Haake thermostatic bath (T = 25.0 ± 0.1 °C). The spectrophotometric titrations were carried out with a Perkin-Elmer Lambda 35 spectrophotometer.
(§8) Both glass and Ag/AgCl reference electrodes were previously conditioned in different DMSO/H2O mixtures of increasing DMSO % concentration and the response of the glass electrode was evaluated by strong acid–strong base (HCl/KOH) calibrations with the determination of the Nernst parameters by Gran’s method. […] The spectrophotometric measurements were carried out in a 250–450 nm wavelength range at pH ca. 2.5–11.8. Under the stated experimental conditions, the pKw value (14.27) was determined and subsequently used in the computations. The stepwise protonation constants of the ligands, Ki = [HiL]/[Hi-1L][H], and the overall metal complex stability constants, β (MmHhLl) = [MmHhLl]/[M]^m[H]^h[L]^l, were calculated by fitting the pH-potentiometric and spectrophotometric data with, respectively, the Hyperquad 2008 [41] and Psequad programs. The metal hydrolysis model was determined under the defined experimental conditions (I = 0.1 M KCl, 20% w/w DMSO/H2O, T = 25.0 ± 0.1 °C) and the following values of stability constants were included in the fitting of experimental data towards the equilibrium models related to the Fe^3+/L and Cu^2+/L systems: log β (FeH-2) = −6.78, log β (FeH-3) = −10.78; log β (Cu2H-2) = −9.94. The species distribution curves were obtained with the Hyss program.

[6] = Fe^3+ complexation, potentiometric / spectrophotometric titration; assay type: physicochemical
Source text: as §4, §5, §6, §7, §8

[7] = design: method as in doi:10.1039/C7NJ00661F, doi:10.1016/j.tca.2004.06.016, doi:10.1021/je101075q; conditions: aqueous medium and/or different ionic strength; cited from earlier work
[8] = design: method as in PMID 25994066; conditions: DPPH method; read-out: Radical Scavenging Activity (EC50); cited from earlier work
[9] = compounds 80 μM, without copper, ThT fluorescence, mean of two independent measurements in duplicate
[10] = T = 25.0 ± 0.1 °C, I = 0.1 M KCl, 20% w/w DMSO/water, pH-potentiometric (FA), UV–Vis (1a, 1d)
[11] = T = 25.0 ± 0.1 °C, I = 0.1 M KCl, 20% w/w DMSO/water, pH-potentiometric data
[12] = pH 7.4, CL/CM = 10, CM = 10^−6 M

T1 sequence (P05067 672-713): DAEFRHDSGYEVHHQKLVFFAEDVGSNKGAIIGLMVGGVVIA

COc1cc(/C=C/C(=O)NOCc2ccc(Cl)cc2Cl)ccc1O [Compound 1e, (E)-N-((2,4-dichlorobenzyl)oxy)-3-(4-hydroxy-3-methoxyphenyl)acrylamide]
inhibition at 80 µM (Aβ1–42 peptide [1]): 77% | EC50 [2]: 32 ± 3 µM | inhibition at 80 µM (Aβ1–42 peptide [3]; [9]): 28.3% | melting point: 164.3 to 166.5 °C

Nc1c2c(nc3ccccc13)CCCC2 [Tacrine, reference compound]
inhibition at 80 µM (Aβ1–42 peptide [3]): 21.5% | Inhibition of Aβ1–42 Aggregation (%) Self-Aβ Aggr. (Aβ1–42 peptide [4]): 22.8%

COc1cc(/C=C/C(=O)NOCc2ccccc2C(F)(F)F)ccc1O [Compound 1c, (E)-3-(4-hydroxy-3-methoxyphenyl)-N-((2-(trifluoromethyl)benzyl)oxy)acrylamide]
inhibition at 80 µM (Aβ1–42 peptide [1]): 68.8% | EC50 [2]: 34 ± 1 µM | inhibition at 80 µM (Aβ1–42 peptide [3]; [9]): 51% | melting point: 76 to 77 °C

COc1cc(/C=C/C(=O)O)ccc1O [FA, (E)-4-hydroxy-3-methoxy cinnamic acid, reference compound]
log β (CumHhLl), species (1–12) [5, 10]: 1.90(8) | log β (CumHhLl), species (101) [5, 10]: 6.52(8) | log β (CumHhLl), species (102) ([5]; T = 25.0 ± 0.1 °C, I = 0.1 M KCl, 20% w/w DMSO/water, pH-potentiometric (FA), UV–Vis (1d)): 11.14(6) | log β (CumHhLl), species (111) [5, 11]: 13.30(4) | pM (Cu^2+), pM = −log [M] [5, 12]: 6.2 | log β (FemHhLl), species (1–22) ([6]; T = 25.0 ± 0.1 °C, I = 0.1 M KCl, 20% w/w DMSO/water): 7.81(8) | log β (FemHhLl), species (101) [6, 10]: 12.15(6) | log β (FemHhLl), species (102) [6, 10]: 20.31(6) | log β (FemHhLl), species (103) [6, 11]: 26.70(8) | pM (Fe^3+), pM = −log [M] [6, 12]: 17.4 | free iron in the Fe^3+/L system ([6]; pH ca. 2, species distribution): ca. 90% | EC50 [2]: 36 ± 2 µM | log K1 previously reported [7]: 8.77–8.94 | log K2 previously reported [7]: 4.46–4.56

O=C1O[C@H]([C@@H](O)CO)C(O)=C1O [Ascorbic acid]
EC50 [8]: 25 ± 1 µM

COc1cccc(CONC(=O)/C=C/c2ccc(O)c(OC)c2)c1 [Compound 1b, (E)-3-(4-hydroxy-3-methoxyphenyl)-N-((3-methoxybenzyl)oxy)acrylamide]
inhibition at 80 µM (Aβ1–42 peptide [1]): 69.5% | EC50 [2]: 40 ± 2 µM | inhibition at 80 µM (Aβ1–42 peptide [3]; [9]): 52.8% | melting point: 63 to 65 °C
